Columns and labels:
[1] = test system: human G-CSF (G21) promoter; experiment: High-throughput luciferase reporter assay, G-CSF promoter (Screen III); conditions: Screen III activators; G21 cells; 6 hours
[2] = test system: human growth hormone (532) promoter; experiment: High-throughput luciferase reporter assay, human Growth Hormone promoter (Screen III); format: cell-based; conditions: Screen III activators; 532 cells; 6 hours
MMTV (M10) promoter = experiment: High-throughput luciferase reporter assay, MMTV promoter (Screen III); format: cell-based, mouse; conditions: Screen III activators; M10 cells; 6 hours
Experimental: pMluci and pSV2Neo, an antibiotic resistance plasmid (112), were co-transfected into NIH/3T3 mouse fibroblast cells using the calcium phosphate precipitation method (103) with a commercially available kit (Pharmacia, Piscataway N.J.). Two days later, cells were transferred to media containing 0.4 mg/ml G418 and were grown for an additional 10-14 days. G418-resistant clones were isolated by standard methods. Once sufficient cell numbers were obtained, clones were analyzed based on several criteria: constitutive luciferase production, induction of luciferase expression by dexamethasone (1 μm, Sigma, St. Louis, Mo.), satisfactory attachment to microtiter plates used in the high-throughput screen and acceptable standard deviation in multiple luciferase expression assays (see below for assay protocol). This analysis was carried out using the luciferase assay conditions described above. Of the clones which satisfied the above criteria for the high throuphput screen, one clone, M10, was selected for use.

Structure (SMILES)	FOLD INDUCTION RELATIVE TO SOLVENT CONTROL, GCSF [1]	FOLD INDUCTION RELATIVE TO SOLVENT CONTROL, hGH [2]	FOLD INDUCTION RELATIVE TO SOLVENT CONTROL, MMTV (MMTV (M10) promoter)
O=C1OC2(c3cc(I)c(O)c(I)c3Oc3c2cc(I)c(O)c3I)c2c(Cl)c(Cl)c(Cl)c(Cl)c21 [compound 792]	0.94 fold	5.31 fold	1.21 fold
Clc1ccc(Sc2cc(Cl)c(Cl)cc2Cl)cc1 [compound 828]	1.47 fold	1.34 fold	2.20 fold
N=c1ccc2nc3ccc(N)cc3sc-2c1 [compound 836]	3.20 fold	0.23 fold	0.58 fold
CC1(C)O[C@@H]2C[C@H]3[C@@H]4CCC5=CC(=O)C=C[C@]5(C)[C@@]4(F)[C@@H](O)C[C@]3(C)[C@]2(C(=O)CO)O1 [compound 848]	0.75 fold	1.28 fold	2.43 fold
CCCCCCCCCCCCCCCC(=O)OCC(COC(=O)CCCCCCCCCCCCCCC)OC(=O)CCCCCCCCCCCCCCC [compound 856]	0.28 fold	6.49 fold	0.42 fold
Nc1ccc(C=CC(=O)O)cc1 [compound 1234]	4.97 fold	0.51 fold	1.03 fold
Cc1c(C2(c3cc(Br)c(O)c(Br)c3C)OS(=O)(=O)c3ccccc32)cc(Br)c(O)c1Br [compound 1251]	0.14 fold	15.19 fold	0.33 fold
Clc1cc(Cl)cc(Br)c1 [compound 1255]	6.74 fold	0.43 fold	1.09 fold
Nc1c(Cl)ncnc1Cl [compound 1269]	0.72 fold	0.91 fold	2.18 fold
Nc1ccc2c(c1)Cc1ccccc1-2 [compound 1316]	0.74 fold	1.39 fold	2.33 fold
Nc1ccc2c(c1)C(=O)c1ccccc1-2 [compound 1318]	1.13 fold	0.85 fold	2.41 fold
Nc1ccc(S(=O)(=O)O)c2cccc(O)c12 [compound 1337]	0.07 fold	15.87 fold	0.23 fold
NCc1ccc(S(N)(=O)=O)cc1 [compound 1375]	8.94 fold	0.04 fold	1.37 fold
Cc1ccc(N)c(S(=O)(=O)O)c1 [compound 1376]	6.37 fold	0.04 fold	1.32 fold
Cc1ccc(C(=O)c2ccccc2N)cc1 [compound 1384]	1.33 fold	0.50 fold	2.43 fold
Cc1cc(N)sn1 [compound 1397]	3.63 fold	0.57 fold	1.13 fold
Nc1ccccc1SSc1ccccc1N [compound 1482]	3.99 fold	0.54 fold	1.07 fold
